In US4605744A, “Imidazole derivatives” (Hoffmann-La Roche Inc., priority 1985, dated 1986):
Structures can show the parent of a compound that is named as a salt.

Experiments:
Assay type in all cases: cell-based
E. coli 257 = assay: In vitro antibacterial activity (MIC, Mueller-Hinton broth); settings: Escherichia coli, 257
Method: (§1) Drug dilutions are prepared in Mueller-Hinton broth ranging from 128 to 0.008 μg/ml. The diluted agents are dispensed in 100 μl amounts into the wells of a 96-well tray and used immediately or frozen at -10° to -70° C. until needed. Using an automated inoculator, 1.5 μl of a 10^-2 dilution of an overnight culture is added to each well of the tray. The tops of the trays are then sealed using transparent tape and incubated overnight at 37° C. The trays are examined with the aid of a viewer. The lowest concentration at which no growth is observed is considered to be the minimum inhibitory concentration (MIC).

E. cloacae 214 = assay: In vitro antibacterial activity (MIC); settings: Enterobacter cloacae, 214, E. cloacae 214; read-out: MIC
Method: as §1

P. mirabilis 90 = assay: In vitro antibacterial activity (MIC); settings: Proteus mirabilis, 90, P. mirabilis 90; read-out: MIC
Method: as §1

S. marcescens S147 = assay: In vitro antibacterial activity (MIC); settings: Serratia marcescens; S. marcescens S147; read-out: MIC
Method: as §1

S. aureus Giorgio = assay: In vitro antibacterial activity (MIC); settings: Staphylococcus aureus, S. aureus Giorgio; read-out: MIC
Method: as §1

K. pneumoniae A = assay: In vitro antibacterial activity (MIC); settings: Klebsiella pneumoniae, K. pneumoniae A; read-out: MIC
Method: as §1

E. aerogenes 503-478 = assay: In vitro antibacterial activity (MIC); settings: Klebsiella aerogenes, 503478, E. aerogenes 503-478; read-out: MIC
Method: as §1

E. aerogenes 8 = assay: In vitro antibacterial activity (MIC); settings: Klebsiella aerogenes; E. aerogenes 8; read-out: MIC
Method: as §1

E. cloacae 9570A = assay: In vitro antibacterial activity (MIC); settings: Enterobacter cloacae, read-out: MIC
Method: as §1

P. mirabilis 620A = assay: In vitro antibacterial activity (MIC); settings: Proteus mirabilis, 620A, P. mirabilis 620A; read-out: MIC
Method: as §1

P. vulgaris 101 = assay: In vitro antibacterial activity (MIC); settings: Proteus vulgaris, 101, P. vulgaris 101; read-out: MIC
Method: as §1

S. marcescens S5 = assay: In vitro antibacterial activity (MIC); settings: Serratia marcescens, S5, S. marcescens S5; read-out: MIC
Method: as §1

P. vulgaris 100 = assay: In vitro antibacterial activity (MIC); settings: Proteus vulgaris; P. vulgaris 100; read-out: MIC
Method: as §1

S. marcescens S3 = assay: In vitro antibacterial activity (MIC); settings: Serratia marcescens; S. marcescens S3; read-out: MIC
Method: as §1

S. marcescens S714 = assay: In vitro antibacterial activity (MIC); settings: Serratia marcescens, S714
Method: as §1

E. cloacae 9295 = assay: In vitro antibacterial activity (MIC); settings: Enterobacter cloacae, 9295, E. cloacae 9295; read-out: MIC
Method: as §1

K. pneumoniae 5096 = assay: In vitro antibacterial activity (MIC); settings: Klebsiella pneumoniae; K. pneumoniae 5096; read-out: MIC
Method: as §1

K. pneumoniae HE7 = assay: In vitro antibacterial activity (MIC); settings: Klebsiella pneumoniae; K. pneumoniae HE7; read-out: MIC
Method: as §1

P. mirabilis 2 = assay: In vitro antibacterial activity (MIC); settings: Proteus mirabilis, 2, P. mirabilis 2; read-out: MIC
Method: as §1

S. marcescens 5805 = assay: In vitro antibacterial activity (MIC); settings: Serratia marcescens, 5805, S. marcescens 5805; read-out: MIC
Method: as §1

K. pneumoniae 503-994 = assay: In vitro antibacterial activity (MIC); settings: Klebsiella pneumoniae, 503994, K. pneumoniae 503-994; read-out: MIC
Method: as §1

P. rettgeri ATCC 9250 = assay: In vitro antibacterial activity (MIC); settings: Providencia rettgeri, ATCC9250, P. rettgeri ATCC 9250; read-out: MIC
Method: as §1

E. cloacae 24 = assay: In vitro antibacterial activity (MIC); settings: Enterobacter cloacae, 24, E. cloacae 24; read-out: MIC
Method: as §1

S. schottmuelleri = assay: In vitro antibacterial activity (MIC); settings: read-out: MIC
Method: as §1

E. cloacae 5699 = assay: In vitro antibacterial activity (MIC); settings: Enterobacter cloacae, 5699, E. cloacae 5699; read-out: MIC
Method: as §1

E. aerogenes 83 = assay: In vitro antibacterial activity (MIC); settings: Klebsiella aerogenes, 83, E. aerogenes 83; read-out: MIC
Method: as §1

E. cloacae P99 = assay: In vitro antibacterial activity (MIC); settings: Enterobacter cloacae, P99, E. cloacae P99
Method: as §1

K. pneumoniae 4964 = assay: In vitro antibacterial activity (MIC); settings: Klebsiella pneumoniae, 4964, K. pneumoniae 4964; read-out: MIC
Method: as §1

P. mirabilis 190 = assay: In vitro antibacterial activity (MIC); settings: Proteus mirabilis, 190, P. mirabilis 190; read-out: MIC
Method: as §1

P. vulgaris ATCC 6380 = assay: In vitro antibacterial activity (MIC); settings: Proteus vulgaris, ATCC6380
Method: as §1

S. marcescens SM = assay: In vitro antibacterial activity (MIC); settings: Serratia marcescens, read-out: MIC
Method: as §1

S. aureus Smith = assay: In vitro antibacterial activity (MIC); settings: Staphylococcus aureus, S. aureus Smith; read-out: MIC
Method: as §1

P. mirabilis 503-1136 = assay: In vitro antibacterial activity (MIC); settings: Proteus mirabilis, 5031136, P. mirabilis 503-1136; read-out: MIC
Method: as §1

S. marcescens S4 = assay: In vitro antibacterial activity (MIC); settings: Serratia marcescens, S4, S. marcescens S4; read-out: MIC
Method: as §1

K. pneumoniae 8357 = assay: In vitro antibacterial activity (MIC); settings: Klebsiella pneumoniae, 8357, K. pneumoniae 8357; read-out: MIC
Method: as §1

S. marcescens S2 = assay: In vitro antibacterial activity (MIC); settings: Serratia marcescens; S. marcescens S2; read-out: MIC
Method: as §1

S. aureus 1059B = assay: In vitro antibacterial activity (MIC); settings: Staphylococcus aureus, read-out: MIC
Method: as §1

C. freundii 8ASM = assay: In vitro antibacterial activity (MIC); settings: Citrobacter freundii, 8ASM, C. freundii 8ASM; read-out: MIC
Method: as §1

**Q.** Which results are given for `CC1(C)S[C@@H]2[C@H](N=CN3CCCC(c4ncc[nH]4)C3)C(=O)N2[C@H]1C(=O)O` (stereo partly drawn) [P, [2S-(2alpha,5alpha,6beta)]-6-[[[3-(1H-imidazol-2-yl)-1-piperidinyl]methylene]amino]-3,3-dimethyl-7-oxo-4-thia-1-azabicyclo[3.2.0]heptane-2-carboxylicacid hydrochloride]?
**A.** MIC (E. coli 257): 2 µg/mL; MIC (E. cloacae 214): 8 µg/mL; MIC (P. mirabilis 90): 8 µg/mL; MIC (S. marcescens S147): 8 µg/mL; MIC (S. aureus Giorgio): 4 µg/mL; MIC (K. pneumoniae A): 2 µg/mL; MIC (E. aerogenes 503-478): > 128 µg/mL; MIC (E. aerogenes 8): 16 µg/mL; MIC (E. cloacae 9570A): 8 µg/mL; MIC (P. mirabilis 620A): > 128 µg/mL; MIC (P. vulgaris 101): 64 µg/mL; MIC (S. marcescens S5): > 128 µg/mL; MIC (P. vulgaris 100): 128 µg/mL; MIC (S. marcescens S3): 8 µg/mL; MIC (S. marcescens S714): 32 µg/mL; MIC (E. cloacae 9295): 8 µg/mL; MIC (K. pneumoniae 5096): 64 µg/mL; MIC (K. pneumoniae HE7): 128 µg/mL; MIC (P. mirabilis 2): 8 µg/mL; MIC (S. marcescens 5805): 128 µg/mL; MIC (K. pneumoniae 503-994): 8 µg/mL; MIC (P. rettgeri ATCC 9250): 4 µg/mL; MIC (E. cloacae 24): 8 µg/mL; MIC (S. schottmuelleri): 2 µg/mL; MIC (E. cloacae 5699): 8 µg/mL; MIC (E. aerogenes 83): 8 µg/mL; MIC (E. cloacae P99): 8 µg/mL; MIC (K. pneumoniae 4964): 64 µg/mL; MIC (P. mirabilis 190): 4 µg/mL; MIC (P. vulgaris ATCC 6380): 0.5 µg/mL; MIC (S. marcescens SM): 8 µg/mL; MIC (S. aureus Smith): 2 µg/mL; MIC (P. mirabilis 503-1136): 64 µg/mL; MIC (S. marcescens S4): > 128 µg/mL; MIC (K. pneumoniae 8357): 8 µg/mL; MIC (S. marcescens S2): 8 µg/mL; MIC (S. aureus 1059B): 64 µg/mL; MIC (C. freundii 8ASM): 2 µg/mL
